Laboratory results from US20210267948A1, “TREATMENT OF CANCER” (CITY OF HOPE, priority 2017, published 2021).

What was measured:
PARP1 = PARP1 protein expression by Western blot; type: cell-based, human; conditions: HCC1937 cells irrespective of BRCA1 status, 4 h
Procedure: FIGS. 3A-3B. […] (FIG. 3A): the effect of COH29 on PARP1 activity in isogenic pairs of breast (HCC1937) and ovarian (UWB1.289) cancer cell lines expressing mutant or wt BRCA1 (wt=+BRCA1 in each case) was assessed in duplicate using procedures described in Materials & Methods; FIG. 3B: the effect of COH29 on PARP1 protein expression in the isogenic HCC1937/HCC1937+BRCA1 cell lines was assessed by Western blot analysis using anti-human PARP1 antibody as the primary antibody. Loading control is β-actin.
For subcellular fractionation, cells were trypsinized and washed with cold PBS solution twice. […] Following centrifugation at 1,000 g for 5 min, the supernatant was collected (i.e., cytoplasmic fraction) and pellets were washed with the same buffer twice. The washed samples were extracted for 40 min on ice with fractionation buffer containing 0.5% NP-40 for nuclear fraction. All the samples were sonicated and clarified by centrifugation at 16,000 g for 15 min. Protein concentrations of all fractions were determined with Bio-Rad Protein Assay (Bio-Rad Laboratories, Hercules, Calif.). Immunoblotting was performed as described previously (21,22). Briefly, equal amounts of boiled protein samples were subjected to SDS-polyacrylamide gel electrophoresis (PAGE) and transferred onto nitrocellulose membranes (Bio-Rad Laboratories). Membranes were blocked for 1 hour in 3% BSA in Tris buffered saline containing 0.05% Tween 20 (TBST) and incubated for 1 hour with primary antibody (1:500 or 1:1000) diluted in TBST containing 1% BSA. After two washes with TBST, membranes were incubated for 1 hour with horseradish peroxidase-conjugated secondary Abs (1:3000 dilution) at room temperature. The immunoblots were visualized on film with the West-Q chemi-luminescence kit (GenDEPOT, Barker, Tex.).

HCC1937 = assay: Cytotoxicity assay, HCC1937; type: cell-based, human; conditions: HCC1937, BRCA1 mutant, triple negative, 72 h
Procedure: All cell lines were acquired from the American Type Culture Collection (Manassas, Va., USA). Cells were maintained in RPMI 1640 medium (Mediatech) with 10% fetal bovine serum, 2 mM glutamine, and 100 U of penicillin and 100 μg of streptomycin per ml of medium (Sigma) at 37° C. in 5% CO2. To isolate HCC1937+BRCA1 cells, parental HCC1937 cells were transfected with pcDNA3.1 plasmid expressing full-length BRCA1 cDNA. Stable transfectant clones were selected and used for drug sensitivity assays. […] The restoration of BRCA1 expression in the puromycin-resistant cDNA/transfectant cells was evaluated by Western blot analysis.
The MTT cytotoxicity assay was performed by incubating with MTT and monitoring the MTT formazan formed by viable cells with a microplate reader at a wavelength of 560 nm; the survival ratio was determined using the formula: (Atest−Ablank)/(Acontrol−Ablank)×100%. The cytotoxicity was determined in 96-well plates using the semiautomatic fluorescence-based Digital Imaging Microscopy System (DIMSCAN). DIMSCAN uses digital imaging microscopy to quantify viable cells, which selectively accumulate FDA (fluorescein diacetate; Alfa Aesar, Ward Hill, Mass.). […] Total fluorescence per well was then measured using DIMSCAN, and the results were expressed as the ratio of the fluorescence in treated wells to the fluorescence in untreated wells (survival fraction).

UWB1.289 = assay: MTT cytotoxicity assay, UWB1.289; type: cell-based, human; conditions: UWB1.289, BRCA1-defective, 72 h; read-out: IC50, mean ± SEM
Procedure: (§1) The MTT cytotoxicity assay was performed by incubating with MTT and monitoring the MTT formazan formed by viable cells with a microplate reader at a wavelength of 560 nm; the survival ratio was determined using the formula: (Atest−Ablank)/(Acontrol−Ablank)×100%. The cytotoxicity was determined in 96-well plates using the semiautomatic fluorescence-based Digital Imaging Microscopy System (DIMSCAN). DIMSCAN uses digital imaging microscopy to quantify viable cells, which selectively accumulate FDA (fluorescein diacetate; Alfa Aesar, Ward Hill, Mass.). DIMSCAN is capable of measuring cytotoxicity over a 4 log dynamic range by quantifying total fluorescence per well (which is proportional to the number of viable cells) after elimination of the background fluorescence by digital thresholding and eosin Y (Mallinckrodt Baker, Center Valley, Pa.) quenching. Cells were seeded into 96-well plates in 100 μL of complete medium at 2,000 to 5,000 cells per well, depending on cell line growth rate. After overnight incubation, test compound was added to each well at various concentrations in 50 μL of culture medium. […] Total fluorescence per well was then measured using DIMSCAN, and the results were expressed as the ratio of the fluorescence in treated wells to the fluorescence in untreated wells (survival fraction).

KB-7D = assay: Cytotoxicity assay, KB-7D; type: cell-based, human; conditions: cisplatin-resistant, read-out: IC50, mean ± SEM
Procedure: as §1

A2780-DDDP = assay: Cytotoxicity assay, A2780-DDDP; type: cell-based, human; conditions: cisplatin-resistant, read-out: IC50, mean ± SEM
Procedure: as §1

OV90 = assay: MTT cytotoxicity assay, OV90; type: cell-based, human; conditions: OV90, wild-type BRCA1, 72 h; read-out: IC50, mean ± SEM
Procedure: as §1

TOV112D = assay: Cytotoxicity assay, TOV112D; type: cell-based, human; conditions: read-out: IC50, mean ± SEM
Procedure: as §1

OVCAR-4 = assay: Cytotoxicity assay, OVCAR-4; type: cell-based, human; conditions: read-out: IC50, mean ± SEM
Procedure: as §1

HCC1937+BRCA1 = assay: Cytotoxicity assay, HCC1937+BRCA1; type: cell-based, human; conditions: HCC1937 + BRCA1, triple negative, 72 h
Procedure: All cell lines were acquired from the American Type Culture Collection (Manassas, Va., USA). Cells were maintained in RPMI 1640 medium (Mediatech) with 10% fetal bovine serum, 2 mM glutamine, and 100 U of penicillin and 100 μg of streptomycin per ml of medium (Sigma) at 37° C. in 5% CO2. To isolate HCC1937+BRCA1 cells, parental HCC1937 cells were transfected with pcDNA3.1 plasmid expressing full-length BRCA1 cDNA. Stable transfectant clones were selected and used for drug sensitivity assays. For stable transfection, cells at 30-40% confluence were incubated overnight with […] of plasmid DNA, using FUGENE® 6 transfectin reagent (Roche Molecular Biochemical, Monza, Italy) according to the manufacturer's instructions. Cells were then selected in puromycin (1 μg/ml) (Invitrogen Life Technologies, La Jolla, Calif., USA). After 20 to 30 days, viable puromycin-resistant colonies from HCC1937 transfections were expanded and screened. The clones that stably expressed puromycin and retained growth potential were assayed for BRCA1 expression by Western blot analysis. The restoration of BRCA1 expression in the puromycin-resistant cDNA/transfectant cells was evaluated by Western blot analysis.
The MTT cytotoxicity assay was performed by incubating with MTT and monitoring the MTT formazan formed by viable cells with a microplate reader at a wavelength of 560 nm; the survival ratio was determined using the formula: (Atest−Ablank)/(Acontrol−Ablank)×100%. The cytotoxicity was determined in 96-well plates using the semiautomatic fluorescence-based Digital Imaging Microscopy System (DIMSCAN). DIMSCAN uses digital imaging microscopy to quantify viable cells, which selectively accumulate FDA (fluorescein diacetate; Alfa Aesar, Ward Hill, Mass.). DIMSCAN is capable of measuring cytotoxicity over a 4 log dynamic range by quantifying total fluorescence per well (which is proportional to the number of viable cells) after elimination of the background fluorescence by digital thresholding and eosin Y (Mallinckrodt Baker, Center Valley, Pa.) quenching. […]

UWB1.289+BRCA1 = assay: Cytotoxicity assay, UWB1.289+BRCA1; type: cell-based, human; conditions: UWB1.289 + BRCA1 (WT), 72 h; read-out: IC50, mean ± SEM
Procedure: as §1

KB-Gem = assay: Cytotoxicity assay, KB-Gem; type: cell-based, human; conditions: gemcitabine-resistant, read-out: IC50, mean ± SEM
Procedure: as §1

SKBR3 = assay: Cytotoxicity assay, SKBR3; type: cell-based, human; conditions: SKBR3, ER− PR(−) HER2+
Procedure: as §1

OVCAR-3 = assay: Cytotoxicity assay, OVCAR-3; type: cell-based, human; conditions: read-out: IC50, mean ± SEM
Procedure: as §1

[1] = test system: wild-type zebrafish embryos; assay: Zebrafish genotoxicity assay; type: in vivo, Danio rerio; conditions: HU 0-50 mM
Procedure: The PARP1 activity was determined using the PARP1 Chemiluminescent Assay Kit (BPS Bioscience, San Diego) according to the manufacturer's protocol. Briefly, the ribosylation reaction was carried out with activated DNA in PARP assay buffer using test inhibitor, positive control, substrate control and blank reactions, for 1 hour at 25° C. Detection was by streptavidin-HRP with chemiluminescent substrate A and B read in a luminometer. NZebrafish (Danio rerio) were obtained from zebrafish Core facility of Taipei Medical University and maintained at 28° C. on a 14 h light/10 h dark cycle. Embryos were incubated at 28° C. and different developmental stages were determined as described (25). Wild-type embryos were treated with different concentrations of HU (0, 5, 10, 20, 50 mM) or COH29 (0, 10, 20, 50, 100 μM) at 20 hpf to evaluate the mutagenic effect. Fifteen embryos were treated per well condition. […] Embryos were observed using an Olympus IX70-FLA inverted fluorescence microscope. Images were taken using SPOT digital camera system (Diagnostic Instruments, Sterling Heights, Mich., USA) and assembled with Image) software (26).
To assess the genotoxicity of COH29, wild-type zebrafish embryos were treated from 1 to 7 dpf (day post-fertilization) with a range of doses of COH29 (0-100 μM) and compared to embryos similarly treated with HU (0-50 mM) which is known to cause developmental defects.

## C[C@]1(c2nc3c(C(N)=O)cccc3[nH]2)CCCN1 [ABT-888, reference compound]
PARP1
  PARP1 protein level: significant reduction

## N.N.[Cl][Pt][Cl] [Cisplatin]
HCC1937
  IC50: 2460 ± 110 nM
UWB1.289
  IC50: 1430 ± 870 nM
KB-7D
  IC50: 7500 ± 300 nM
A2780-DDDP
  IC50: 5020 ± 1180 nM
OV90
  IC50: 1570 ± 290 nM
TOV112D
  IC50: 1320 ± 200 nM
OVCAR-4
  IC50: 2250 ± 250 nM
HCC1937+BRCA1
  IC50: 2930 ± 550 nM
UWB1.289+BRCA1
  IC50: 7400 ± 2020 nM
KB-Gem
  IC50: 380 ± 30 nM
SKBR3
  IC50: 990 ± 240 nM
OVCAR-3
  IC50: 1640 ± 40 nM

## NC(=O)NO [HU, hydroxyurea, reference compound]
[1]
  number of mutant embryos: dose-dependent increase
[1]; embryos treated 1 to 7 dpf, COH29 0-100 μM
  developmental defects: caused defects in eyes and heart by 4 dpf
